Test results as given in US4314063A, “1-Ethyl-1,4,5,6-tetrahydro-6-(2-naphthyl)-4-oxo-nicotinic acid and lower alkyl esters thereof” (Hoffmann-La Roche Inc., priority 1981, dated 1982).
Structures can show the parent of a compound that is named as a salt.

Columns and labels:
Type in all cases: in vivo
[1] = LD50 (mouse), acute toxicity; conditions: in vivo, mouse
mouse = assay: LD50 (mouse), acute toxicity; conditions: in words
rats = assay: Turning rat test (rotation in rats with unilateral 6-OHDA lesion of the medial forebrain bundle); conditions: for minimal effective dose: Rattus norvegicus, ip, 1 h, i.p., active = more than 100 turns/hour, 5 rats per dose, read-out: Turning rat test minimum active dosage
Protocol: Female rats weighing 150 g are anaesthetised with pentobarbital (50 mg kg^-1 i.p.) and fixed in a stereotaxic apparatus (David Kopf). A unilateral (right side) injection into the MFB (medial forebrain bundle) of 6-OHDA (6-hydroxy-dopamine), 3 μg as base, dissolved in 4 μl of Ringer solution containing 0.02% ascorbic acid, is carried out through a stainless-steel cannula (diameter 0.3 mm) connected to a microsyringe. The liquid is injected at a speed of 1 μl min^-1 by means of a high precision infusion pump. In order to reach the MFB (medial forebrain bundle), the following coordinates are used: A=+3.8 mm, L (right)=0.9 mm, V=-3 mm according to the Atlas of Konig and Klippel.
After 3 weeks recovery period, the operated rats are injected with apomorphine, 1 mg kg^1- i.p. Those animals showing a regular contralateral (i.e., away from the lesioned side) turning, recorded automatically during 1 hour in a rotometer, are selected for further experiments. At least one week is allowed between each injection of screening compounds.
Drugs which induce rotation are dopamine receptor agonists. If the turning is contralateral (i.e., away from the lesioned side) the drugs are classified as "apomorphine-like", which indicates a direct dopamine-receptor stimulation (postsynaptic). The denervated striatum is more sensitive to dopamine receptor agonistes than the intact one. Agonists therefore affect the denervated striatum more than the intact one. This inbalance results in contralateral turning (rotation).
If the rotation is ipsilateral (i.e., towards the lesioned side), the drugs are classified as "amphetamine-like", which means that they release and/or block the reuptake of dopamine (presynaptic) from nerve terminals on the intact side, whereas they have little if any effect on the striatum with denervated dopamine neurons. The result of this inbalance is an ipsilateral turning.
The total number of ipsilateral or contralateral turns (full rotation around the vertical axes of the body) made by each rat, is automatically recorded over the time (usually 1 hour). 5 rats are injected for each dose and the mean of total turns per hour is determined.
A compound is said active, if it produces more than 100 turns/hour. If a drug induces rotation, but less than 100 turns/hour, it is indicated as slightly active. […] The results are expressed as: […]
Minimal effective dose--if the drug is active

With `CCn1cc(C(=O)O)c(=O)cc1-c1ccc2ccccc2c1` [1-ethyl-1,4-dihydro-6-(2-naphthyl)-4-oxonicotinic acid] the LD50 ([1]; po) was 170 mg/kg, the “LD50 compared with d-amphetamine and d-methamphetamine” value (mouse; versus d-amphetamine and d-methamphetamine) was “substantially lower LD50” and the “LD50 compared with nomifensin” value (mouse; versus nomifensin) was “about the same LD50”. For the same molecule, the minimal effective dose (rats) was 1 mg/kg, the “strength of action compared with d-amphetamine and d-methamphetamine” value (rats; in words, versus d-amphetamine and d-methamphetamine, see Table I) was “about the same strength of action” and the “action compared with nomifensin” value (rats; in words, versus nomifensin, see Table I) was “substantially superior to nomifensin”.

`CN1Cc2c(N)cccc2C(c2ccccc2)C1` (stereo not drawn) [Nomifensin, 8-amino-1,2,3,4-tetrahydro-2-methyl-4-phenylisoquinoline] showed an LD50 ([1]; po) of 300 to 600 mg/kg and a minimal effective dose (rats) of 3 mg/kg.

`C[C@H](N)Cc1ccccc1` [d-Amphetamine . 1/2 H2 SO4] gave an LD50 ([1]; iv) of 14 mg/kg, an LD50 ([1]; po) of 35 mg/kg and an LD50 ([1]; sc) of 22 mg/kg. It also gave a minimal effective dose (rats) of 1 mg/kg.

`CN[C@@H](C)Cc1ccccc1` [d-Methamphetamine . HCl] gave an LD50 ([1]; iv) of 9.5 mg/kg, an LD50 ([1]; sc) of 14 mg/kg and a minimal effective dose (rats) of 1 mg/kg.
